# Biological target: T1, S1P5 receptors (Homo sapiens, UniProt Q9H228)
# T1 construct: expressed in transfected cells; host or cells: CHO cells (membranes)
# Assay: [35S]-GTPγS binding assay on CHO-S1P5 membranes (S1P5 agonism)
# Type: biochemical
# Details: membranes of CHO cells expressing recombinant S1P5; measure of S1P5 agonism
# Description: CHO cells expressing recombinant S1P5 receptors were cultured in 500 cm^2 culture trays and, once confluent, rinsed and detached with cell-lifting buffer (10 mM HEPES, 154 mM NaCl, 6.85 mM EDTA, pH 7.4). Cells were then pelleted by centrifugation, resuspended, and homogenized in membrane preparation buffer (10 mM HEPES and 10 mM EDTA, pH 7.4) using a Polytron PT 1200E homogenizer (Kinematica, Luzern, Switzerland). Cellular proteins were pelleted by centrifugation at 48,000×g at 4° C. for 30 minutes. The resulting supernatant was discarded, and the pellet was re-suspended again in membrane preparation buffer, homogenized for a second time, and then centrifuged again as described above. The final cellular protein pellet was suspended in ice cold resuspension buffer (10 mM HEPES and 0.1 mM EDTA, pH 7.4), divided into aliquots, and stored at −80° C. until use.
# Functional binding assays for [^35S]-GTPγS were performed in 96-well non-binding surface plates with a final volume of 200 μL. The test compounds were serially diluted in DMSO and added to assay plates using a Tecan D300E digital printer with a total volume of 0.4 μL. The control sphingosine-1-phosphate (SIP) was prepared separately by preparing a 400 µM stock solution from a 100 nmol pellet of S1P in 10 mM Na2CO3 with 2% β-cyclodextrin. The serial dilution of S1P was done using complete assay buffer (20 mM HEPES, 10 mM MgCl2, 100 mM NaCl, 1 mM EDTA, 0.1% fatty acid free bovine serum albumin (BSA), and 30 μg/mL saponin, pH 7.4) and transferred to wells already containing 0.4 μL DMSO. All the wells were then loaded to a total volume of 40 μL of complete assay buffer, except the non-specific binding (NSB) wells. For NSB wells, 40 μL/well of 50 μM GTPγS (Sigma Aldrich, cat #G8634, St. Louis, MO) was added to wells containing 0.4 μL of DMSO. The assay was started by the addition of 120 μL/well of CHO-SIP receptor membrane solution containing 40 μg/mL of membrane protein, 16.67 μM guanosine diphosphate (GDP; Sigma Aldrich, cat #G7127, St. Louis, MO), and 2.5 mg/mL of WGA PVT SPA beads in complete buffer. Assay plates were then sealed and incubated at room temperature with gentle agitation for 30 minutes. Next, 40 μL/well of 1 nM of [^35S]-GTPγS (PerkinElmer, cat #NEG030X^250UC, Waltham, MA) in basic assay buffer (20 mM HEPES, 10 mM MgCl2, 100 mM NaCl, and 1 mM EDTA, pH7.4) was added to the assay plates to yield a final concentration of […] and the plates were further incubated for 40 minutes at room temperature with gentle agitation. The assay was terminated by centrifugation of the plates at 1000 rpm for 3 minutes using an Eppendorf 5810R centrifuge (Eppendorf, Hamburg, Germany) and G protein bound radioactivity was quantitated using a MicroBeta2 microplate scintillation counter (PerkinElmer, Waltham, MA). As G protein bound radioactivity directly correlates to receptor activation and coupling to the G protein, this assay is a measure of S1P5 agonism.
# T1 sequence (Q9H228 whole entry): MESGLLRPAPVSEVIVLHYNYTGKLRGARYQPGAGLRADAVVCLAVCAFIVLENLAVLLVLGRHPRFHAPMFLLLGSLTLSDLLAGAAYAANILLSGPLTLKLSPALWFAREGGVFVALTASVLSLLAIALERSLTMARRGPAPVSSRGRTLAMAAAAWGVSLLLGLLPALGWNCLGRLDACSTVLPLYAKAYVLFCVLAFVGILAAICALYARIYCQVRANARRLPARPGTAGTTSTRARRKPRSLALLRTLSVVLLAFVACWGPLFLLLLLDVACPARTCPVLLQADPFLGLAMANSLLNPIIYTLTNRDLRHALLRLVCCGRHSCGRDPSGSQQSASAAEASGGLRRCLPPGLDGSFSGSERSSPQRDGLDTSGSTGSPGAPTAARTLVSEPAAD
row,EC50,Compound
1,100 to 1000 nM,"Cc1cc(C2CN(c3c(Cl)cccc3Cl)C2)cc(C)c1CN1CC(O)(C(F)(F)F)C1 [Compound 41, 1-(4-(1-(2,6-dichlorophenyl)azetidin-3-yl)-2,6-dimethylbenzyl)-3-(trifluoromethyl) azetidin-3-ol]"
2,1 to 10 nM,"Cc1cc(CCc2c(Cl)cccc2Cl)cc2c1C(N1CC(C)(O)C1)CC2 (single isomer, unassigned) [Compound 14a, 1-[5-[2-(2,6-dichlorophenyl)ethyl]-7-methyl-indan-1-yl]-3-methyl-azetidin-3-ol]"
3,1 to 10 nM,"Cc1cc(CCc2c(Cl)cccc2Cl)cc2c1C(N1CC(C)(O)C1)CC2 (single isomer, unassigned) [Compound 14b, 1-[5-[2-(2,6-dichlorophenyl)ethyl]-7-methyl-indan-1-yl]-3-methyl-azetidin-3-ol]"
4,1 to 10 nM,"Cc1cc(N2CC(c3c(Cl)cccc3Cl)C2)cc(C)c1CN1CC(C)(O)C1 [Compound 37, 1-(4-(3-(2,6-dichlorophenyl)azetidin-1-yl)-2,6-dimethylbenzyl)-3-methylazetidin-3-ol]"
5,10 to 100 nM,"CC1(O)CN(Cc2ccc(C3CN(c4c(Cl)cccc4Cl)C3)c3ccccc23)C1 [Compound 55, 1-((4-(1-(2,6-dichlorophenyl)azetidin-3-yl)naphthalen-1-yl)methyl)-3-methylazetidin-3-ol]"
6,10 to 100 nM,"CC1(O)CN(C2CCc3cc(-c4ccc(C5CC5)c(Cl)c4)ccc32)C1 (single isomer, unassigned) [Compound 5a, 1-[5-(3-chloro-4-cyclopropyl-phenyl)indan-1-yl]-3-methyl-azetidin-3-ol]"
7,1 to 10 nM,"Cc1c(OCc2c(Cl)cccc2Cl)ccc2c1CCC2N1CC(C)(O)C1 (single isomer, unassigned) [Compound 19b, 1-[5-[(2,6-dichlorophenyl)methoxy]-4-methyl-indan-1-yl]-3-methyl-azetidin-3-ol]"
8,1 to 10 nM,"Cc1c(CCc2c(Cl)cccc2Cl)ccc2c1CCC2N1CC(C)(O)C1 (single isomer, unassigned) [Compound 18a, 1-[5-[2-(2,6-dichlorophenyl)ethyl]-4-methyl-indan-1-yl]-3-methyl-azetidin-3-ol]"
9,1000 to 10000 nM,"CC1(O)CCN(C2CCc3cc(-c4ccc(C5CC5)c(Cl)c4)ccc32)CC1 (stereo not drawn) [Compound 6, 1-(5-(3-chloro-4-cyclopropylphenyl)-2,3-dihydro-1H-inden-1-yl)-4-methylpiperidin-4-ol]"
10,1 to 10 nM,"Cc1cc2c(cc1-c1ccc(C3CC3)c(Cl)c1)CCC2N1CC(C)(O)C1 (single isomer, unassigned) [Compound 21b, 1-[5-(3-chloro-4-cyclopropyl-phenyl)-6-methyl-indan-1-yl]-3-methyl-azetidin-3-ol]"
11,10 to 100 nM,"Cc1cc(C2CN(c3c(Cl)cccc3Cl)C2)cc(Cl)c1CN1CC(C)(O)C1 [Compound 49, 1-(2-chloro-4-(1-(2,6-dichlorophenyl)azetidin-3-yl)-6-methylbenzyl)-3-methylazetidin-3-ol]"
12,100 to 1000 nM,"CC1(O)CN(Cc2ccc(N3CC(c4c(Cl)cccc4Cl)C3)cn2)C1 [Compound 66, 1-((5-(3-(2,6-dichlorophenyl)azetidin-1-yl)pyridin-2-yl)methyl)-3-methylazetidin-3-ol]"
13,10 to 100 nM,"Cc1cc(C2CN(c3c(F)cccc3F)C2)cc(C)c1CN1CC(C)(O)C1 [Compound 42, 1-(4-(1-(2,6-difluorophenyl)azetidin-3-yl)-2,6-dimethylbenzyl)-3-methylazetidin-3-ol]"
14,1000 to 10000 nM,"Cc1cc(-c2ccc(C3CC3)c(Cl)c2)cc2c1C(N1CCC(C)(O)CC1)CC2 (stereo not drawn) [Compound 11, 1-(5-(3-chloro-4-cyclopropylphenyl)-7-methyl-2,3-dihydro-1H-inden-1-yl)-4-methylpiperidin-4-ol]"
15,100 to 1000 nM,"CC1(O)CN(Cc2ccc(C3CN(c4c(Cl)cccc4Cl)C3)cn2)C1 [Compound 59, 1-((5-(1-(2,6-dichlorophenyl)azetidin-3-yl)pyridin-2-yl)methyl)-3-methylazetidin-3-ol]"
16,100 to 1000 nM,"CC1(O)CCN(C2CCc3cc(-c4ccc(C5CC5)c(Cl)c4)ccc32)C1 (stereo not drawn) [Compound 7, 1-(5-(3-chloro-4-cyclopropylphenyl)-2,3-dihydro-1H-inden-1-yl)-3-methylpyrrolidin-3-ol]"
17,1 to 10 nM,"Cc1cc(CN2CC(C)(O)C2)cc(C)c1N1CC(c2c(Cl)cccc2Cl)C1 [Compound 63, 1-(4-(3-(2,6-dichlorophenyl)azetidin-1-yl)-3,5-dimethylbenzyl)-3-methylazetidin-3-ol]"
18,100 to 1000 nM,"CCc1cc(C2CN(c3c(Cl)cccc3Cl)C2)cc(CC)c1CN1CC(C)(O)C1 [Compound 52, 1-(4-(1-(2,6-dichlorophenyl)azetidin-3-yl)-2,6-diethylbenzyl)-3-methylazetidin-3-ol]"
19,100 to 1000 nM,"CC1(O)CN(Cc2ccc(N3CC(c4c(Cl)cccc4Cl)C3)cc2)C1 [Compound 33, 1-(4-(3-(2,6-dichlorophenyl)azetidin-1-yl)benzyl)-3-methylazetidin-3-ol]"
20,10 to 100 nM,"Cc1cc2c(cc1CCc1c(Cl)cccc1Cl)CCC2N1CC(C)(O)C1 (single isomer, unassigned) [Compound 23b, 1-[5-[2-(2,6-dichlorophenyl)ethyl]-6-methyl-indan-1-yl]-3-methyl-azetidin-3-ol]"
21,1 to 10 nM,"Cc1cc(OCc2c(Cl)cccc2Cl)cc2c1C(N1CC(C)(O)C1)CC2 (single isomer, unassigned) [Compound 15b, 1-[5-[(2,6-dichlorophenyl)methoxy]-7-methyl-indan-1-yl]-3-methyl-azetidin-3-ol]"
22,10 to 100 nM,"CC1(O)CN(C2CCc3cc(-c4ccc(C5CC5)c(F)c4)ccc32)C1 (single isomer, unassigned) [Compound 4a, 1-(5-(4-cyclopropyl-3-fluorophenyl)-2,3-dihydro-1H-inden-1-yl)-3-methyl azetidin-3-ol]"
23,1 to 10 nM,"Cc1cc2c(c(C)c1-c1ccc(C3CC3)c(Cl)c1)CCC2N1CC(C)(O)C1 (single isomer, unassigned) [Compound 25b, 1-(5-(3-chloro-4-cyclopropylphenyl)-4,6-dimethyl-2,3-dihydro-1H-inden-1-yl)-3-methylazetidin-3-ol]"
24,100 to 1000 nM,"Cc1cc(C2CN(c3c(Cl)cccc3Cl)C2)cc(C)c1CN1CCC(C)(O)CC1 [Compound 34, 1-(4-(1-(2,6-dichlorophenyl)azetidin-3-yl)-2,6-dimethylbenzyl)-4-methylpiperidin-4-ol]"
25,1 to 10 nM,"CC1(O)CN(C2CCc3cc(OCc4c(Cl)cccc4Cl)ccc32)C1 (single isomer, unassigned) [Compound 3a, 1-(5-((2,6-dichlorobenzyl)oxy)-2,3-dihydro-1H-inden-1-yl)-3-methylazetidin-3-ol]"
26,100 to 1000 nM,"CC1(O)CCN(C2CCc3cc(C4CN(c5c(Cl)cccc5Cl)C4)ccc32)C1 (stereo not drawn) [Compound 9, 1-(5-(1-(2,6-dichlorophenyl)azetidin-3-yl)-2,3-dihydro-1H-inden-1-yl)-3-methylpyrrolidin-3-ol]"
27,1000 to 10000 nM,"CC1(O)CCN(Cc2ccc(C3CN(c4c(Cl)cccc4Cl)C3)cc2)CC1 [Compound 30, 1-(4-(1-(2,6-dichlorophenyl)azetidin-3-yl)benzyl)-4-methylpiperidin-4-ol]"
28,100 to 1000 nM,"CC1(O)CN(Cc2ccc(N3CC(c4c(Cl)cccc4Cl)C3)nc2)C1 [Compound 64, 1-((6-(3-(2,6-dichlorophenyl)azetidin-1-yl)pyridin-3-yl)methyl)-3-methylazetidin-3-ol]"
29,1 to 10 nM,"Cc1c(-c2ccc(C3CC3)c(Cl)c2)ccc2c1CCC2N1CC(C)(O)C1 (single isomer, unassigned) [Compound 16b, 1-[5-(3-chloro-4-cyclopropyl-phenyl)-4-methyl-indan-1-yl]-3-methyl-azetidin-3-ol]"
30,10 to 100 nM,"CC1(O)CN(C2CCc3cc(-c4ccc(C5CC5)c(Cl)c4)ccc32)C1 (single isomer, unassigned) [Compound 5b, 1-[5-(3-chloro-4-cyclopropyl-phenyl)indan-1-yl]-3-methyl-azetidin-3-ol]"

# — patent publication US20260022094A1, “Compounds for the Treatment of Neurodegenerative Diseases” (Celgene Corporation, priority 2022, published 2026)
